From paper PMC6155837, “Design, Synthesis, and Biological Evaluation of a New Series of Biphenyl/Bibenzyl Derivatives Functioning as Dual Inhibitors of Acetylcholinesterase and Butyrylcholinesterase” (Molecules : A Journal of Synthetic Chemistry and Natural …, 2017) come the findings set out here.

One assay has as its target T1, AChE (from rat brain) (Rattus norvegicus, UniProt P37136).
T1 construct: rat AChE purified from the rat brain; from tissue; host or cells: rat brain
As to the kind of experiment: biochemical. It is filed as biochemical. Here is the method:
(§1) All of the assay of acetylcholinesterase (AChE) and butyrylcholinesterase (BuChE) were performed according to the method described by Ellman et al. using the rat AChE purified from the rat brain and human BuChE purified by human serum. In an enzymatic reaction medium contained different concentration of tested compounds and AChE suspended in the phosphate buffer solution at pH 7.2. After 30 min at room temperature, acetylthiocholine iodide and 5.5′-dithiobis-2-nitrobenzoic acid (DNTB) were added and the reaction mixture incubated at 37 °C for 60 min. […] The parallel control experiment was carried without tested compounds in the reaction mixture. For BuChE inhibitory assay, the procedure described above was followed except for the use of enzyme and substrate, instead of which butyrylcholinesterase and butyrylthiocholine chloride were used, respectively. Assays were done with a blank containing all compounds except AChE or BuChE in order to account for nonenzymatic reactions. Each inhibitory test was conducted in triplicate. […] Each concentration was assayed in triplicate and data were expressed as the mean ± SEM.

Another assay has as its target T2, BuChE (from human serum) (Homo sapiens, UniProt P06276).
T2 construct: human BuChE purified by human serum; from tissue; host or cells: human serum
The assay is described as follows: biochemical. Here is the method:
as §1

Where [1] appears, read: AChE from rat brain, footnote d: inactive up to 100 µM/L, read-out: IC50 µM ± SEM AChE.
The mark [2] stands for this setting: BuChE from human serum, means ± SEM of three experiments, read-out: IC50 µM ± SEM BuChE.
Where [3] appears, read: AChE from rat brain, means ± SEM of three experiments, read-out: IC50 µM ± SEM AChE.

Each structure is given as a SMILES string. Where two headings read alike, the source gives them in different places.

T1 sequence (P37136 32-614): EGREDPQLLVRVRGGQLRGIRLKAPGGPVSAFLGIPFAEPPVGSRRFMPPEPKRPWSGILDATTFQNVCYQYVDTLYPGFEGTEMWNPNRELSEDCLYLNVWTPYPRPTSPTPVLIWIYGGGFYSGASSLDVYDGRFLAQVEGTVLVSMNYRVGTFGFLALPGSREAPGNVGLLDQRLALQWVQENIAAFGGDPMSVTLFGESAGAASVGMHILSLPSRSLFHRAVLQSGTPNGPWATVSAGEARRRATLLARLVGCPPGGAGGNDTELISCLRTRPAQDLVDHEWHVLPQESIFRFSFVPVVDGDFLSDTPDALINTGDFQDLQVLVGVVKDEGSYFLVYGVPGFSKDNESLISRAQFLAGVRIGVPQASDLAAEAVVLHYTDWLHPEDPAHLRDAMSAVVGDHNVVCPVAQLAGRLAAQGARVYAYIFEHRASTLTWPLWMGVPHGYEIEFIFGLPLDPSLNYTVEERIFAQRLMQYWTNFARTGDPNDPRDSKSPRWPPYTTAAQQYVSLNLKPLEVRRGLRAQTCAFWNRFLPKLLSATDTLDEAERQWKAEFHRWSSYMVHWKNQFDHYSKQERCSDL
T2 sequence (P06276 29-602): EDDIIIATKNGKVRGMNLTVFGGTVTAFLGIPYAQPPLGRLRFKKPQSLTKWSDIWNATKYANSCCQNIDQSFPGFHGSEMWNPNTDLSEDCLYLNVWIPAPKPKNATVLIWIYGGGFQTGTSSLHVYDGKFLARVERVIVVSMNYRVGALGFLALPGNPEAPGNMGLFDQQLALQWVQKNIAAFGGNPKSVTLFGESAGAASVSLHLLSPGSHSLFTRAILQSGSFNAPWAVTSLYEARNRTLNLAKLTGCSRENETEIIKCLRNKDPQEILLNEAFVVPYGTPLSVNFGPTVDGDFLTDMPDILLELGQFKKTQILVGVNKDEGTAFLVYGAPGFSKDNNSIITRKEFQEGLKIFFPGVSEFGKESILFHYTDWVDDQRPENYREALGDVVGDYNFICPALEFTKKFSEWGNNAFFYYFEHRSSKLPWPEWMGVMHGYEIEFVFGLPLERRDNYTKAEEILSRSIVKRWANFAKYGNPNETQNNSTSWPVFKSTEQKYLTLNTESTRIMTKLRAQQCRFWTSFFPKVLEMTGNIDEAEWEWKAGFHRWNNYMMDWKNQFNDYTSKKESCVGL

By IC50 is commonly meant the concentration needed to halve the response being measured. In the case of `O=C(CCCCN1CCCCC1)c1ccc(CCc2ccc(C(=O)CCCCN3CCCCC3)cc2)cc1` [Compound 33, 1,1′-(Ethane-1,2-diylbis(4,1-phenylene))bis(5-(piperidin-1-yl)pentan-1-one)], the IC50 on AChE (from rat brain) was determined as 0.19 ± 0.08 µM; against BuChE (from human serum), 1.64 ± 0.27 µM.
Take `O=C(CN1CCOCC1)c1ccc(CCc2ccc(C(=O)CN3CCOCC3)cc2)cc1` [Compound 28]: the IC50 at AChE (from rat brain) (setting [1]) was above 100 µM; on BuChE (from human serum) (setting [2]), 6.3 ± 1.6 µM.
As for `CN(C)CCC(=O)c1ccc(-c2ccc(C(=O)CCN(C)C)cc2)cc1` [Compound 1, 4,4′-bi-(β-dimethylamino-propinoyl)-biphenyl], the 50% inhibitory concentration (IC50) against AChE (from rat brain) is 0.75 µM; at BuChE (from human serum) it was 0.19 µM.
The corresponding values for `O=C(CCN1CCCCCC1)c1ccc(-c2ccc(C(=O)CCN3CCCCCC3)cc2)cc1` [Compound 21, 4,4′-Bis(β-azepan-propinoyl)-biphenyl] are 1.43 ± 0.33 µM and 1.94 ± 0.07 µM.
Turning to `CN(C)CC(=O)c1ccc(-c2ccc(C(=O)CN(C)C)cc2)cc1` [Compound 12, 1,1′-([1,1′-Biphenyl]-4,4′-diyl)bis(2-(dimethylamino)ethanone)], the IC50 was above 100 µM on AChE (from rat brain) (setting [1]) and 91.7 ± 15.7 µM on BuChE (from human serum) (setting [2]).
`CN1CCN(CC(=O)c2ccc(CCc3ccc(C(=O)CN4CCN(C)CC4)cc3)cc2)CC1` [Compound 27, 1,1′-(Ethane-1,2-diylbis(4,1-phenylene))bis(2-(4-methylpiperazin-1-yl)ethanone)]: the values for the IC50 against AChE (from rat brain) and on BuChE (from human serum) were 74.1 ± 11.5 µM and 66.5 ± 17 µM, respectively.
For the compound `O=C(CCN1CCCCC1)c1ccc(-c2ccc(C(=O)CCN3CCCCC3)cc2)cc1` [Compound 19], the values for the IC50 against AChE (from rat brain) and at BuChE (from human serum) were 0.096 ± 0.006 µM and 1.25 ± 0.15 µM, respectively. Moreover, on AChE (from rat brain) (relative to compound 1), the “fold more potent than the lead compound (1) for inhibiting AChE” value was “eight”.
Consider `O=C(CN1CCCCC1)c1ccc(CCc2ccc(C(=O)CN3CCCCC3)cc2)cc1` [Compound 26, 1,1′-(Ethane-1,2-diylbis(4,1-phenylene))bis(2-(piperidin-1-yl)ethanone)], for which the values for the IC50 on AChE (from rat brain) (setting [3]) and on BuChE (from human serum) were 74.5 ± 8.5 µM and 20.7 ± 5.44 µM, respectively.
For `CN(C)CCC(=O)c1ccc(CCc2ccc(C(=O)CCN(C)C)cc2)cc1` [Compound 29, 1,1′-(Ethane-1,2-diylbis(4,1-phenylene))bis(3-(dimethylamino)propan-1-one)], the IC50 against AChE (from rat brain) is 2.62 ± 0.63 µM; on BuChE (from human serum), 1.21 ± 0.22 µM.
Take `O=C(CCN1CCOCC1)c1ccc(-c2ccc(C(=O)CCN3CCOCC3)cc2)cc1` [Compound 20]: the IC50 on AChE (from rat brain) is 0.97 ± 0.08 µM; against BuChE (from human serum) it was 0.72 ± 0.1 µM.
The corresponding values for `O=C(CCCN1CCCCC1)c1ccc(CCc2ccc(C(=O)CCCN3CCCCC3)cc2)cc1` [Compound 32, 1,1′-(Ethane-1,2-diylbis(4,1-phenylene))bis(4-(piperidin-1-yl)butan-1-one)] are 3.67 ± 0.92 µM and 19.2 ± 4.78 µM.
Turning to `O=C(CCN1CCC1)c1ccc(-c2ccc(C(=O)CCN3CCC3)cc2)cc1` [Compound 17, 4,4′-Bis(β-azetidin-propinoyl)-biphenyl], the IC50 at AChE (from rat brain) was 0.71 ± 0.06 µM; on BuChE (from human serum), 2.39 ± 0.75 µM.
As to `O=C(CN1CCCCC1)c1ccc(-c2ccc(C(=O)CN3CCCCC3)cc2)cc1` [Compound 13, 1,1′-([1,1′-Biphenyl]-4,4′-diyl)bis(2-(piperidin-1-yl)ethanone)], the IC50 on AChE (from rat brain) (setting [1]) was above 100 µM; against BuChE (from human serum) it was 71.7 ± 3.01 µM.
In the case of `CN1CCN(CCC(=O)c2ccc(-c3ccc(C(=O)CCN4CCN(C)CC4)cc3)cc2)CC1` [Compound 22, 4,4′-Bis(β-4-methylpiperazin-propinoyl)-biphenyl], the IC50 amounted to 1.61 ± 0.38 µM against AChE (from rat brain) and 13.8 ± 0.81 µM on BuChE (from human serum).
On to `OC(CCN1CCOCC1)c1ccc(-c2ccc(C(O)CCN3CCOCC3)cc2)cc1` (centres unmarked) [Compound 35, 1,1′-([1,1′-Biphenyl]-4,4′-diyl)bis(3-morpholinopropan-1-ol)], for which the IC50 on AChE (from rat brain) (setting [1]) was above 100 µM; at BuChE (from human serum) (BuChE from human serum, footnote d: inactive up to 100 µM/L, read-out: IC50 µM ± SEM BuChE) it was above 100 µM.
Regarding `OC(CCN1CCCCC1)c1ccc(-c2ccc(C(O)CCN3CCCCC3)cc2)cc1` (centres unmarked) [Compound 34, 1,1′-([1,1′-Biphenyl]-4,4′-diyl)bis(3-(piperidin-1-yl)propan-1-ol)], the IC50 at AChE (from rat brain) turned out to be 31.7 ± 10.2 µM; against BuChE (from human serum), 13.8 ± 1.59 µM.
Taken in the same sequence, the figures for `CCN(CC)CCC(=O)c1ccc(-c2ccc(C(=O)CCN(CC)CC)cc2)cc1` [Compound 15, 4,4′-Bis(β-diethylamino-propinoyl)-biphenyl] were 1.18 ± 0.29 µM and 0.74 ± 0.09 µM.
Take `O=C(CCN1CCCC1)c1ccc(-c2ccc(C(=O)CCN3CCCC3)cc2)cc1` [Compound 18, 4,4′-Bis(β-pyrrolidin-propinoyl)-biphenyl]: the IC50 against AChE (from rat brain) came out at 0.33 ± 0.06 µM; against BuChE (from human serum), 1.16 ± 0.09 µM.
For the compound `O=C(CN1CCOCC1)c1ccc(-c2ccc(C(=O)CN3CCOCC3)cc2)cc1` [Compound 14, 1,1′-([1,1′-Biphenyl]-4,4′-diyl)bis(2-morpholinoethanone)], the IC50 is above 100 µM on AChE (from rat brain) and 1.44 ± 0.23 µM at BuChE (from human serum) (setting [2]).
With `O=C(CCN1CCOCC1)c1ccc(CCc2ccc(C(=O)CCN3CCOCC3)cc2)cc1` [Compound 31, 1,1′-(Ethane-1,2-diylbis(4,1-phenylene))bis(3-morpholinopropan-1-one)], the IC50 against AChE (from rat brain) came to 3.53 ± 0.79 µM; against BuChE (from human serum), 6.38 ± 1.26 µM.
Turning to `CN(C)CC(=O)c1ccc(CCc2ccc(C(=O)CN(C)C)cc2)cc1` [Compound 25, 1,1′-(Ethane-1,2-diylbis(4,1-phenylene))bis(2-(dimethylamino)ethanone)], the IC50 turned out to be 62.3 ± 14.5 µM against AChE (from rat brain) and 9.11 ± 2.55 µM on BuChE (from human serum).
In the case of `O=C(CCN1CCCCC1)c1ccc(CCc2ccc(C(=O)CCN3CCCCC3)cc2)cc1` [Compound 30, 1,1′-(Ethane-1,2-diylbis(4,1-phenylene))bis(3-(piperidin-1-yl)propan-1-one)], the IC50 against AChE (from rat brain) was found to be 0.5 ± 0.06 µM; on BuChE (from human serum) (setting [2]), 3.14 ± 0.24 µM.
On to `CCCN(CCC)CCC(=O)c1ccc(-c2ccc(C(=O)CCN(CCC)CCC)cc2)cc1` [Compound 16, 4,4′-Bis(β-dipropylamino-propinoyl)-biphenyl], for which the IC50 on AChE (from rat brain) stood at 0.88 ± 0.17 µM; against BuChE (from human serum), 2.83 ± 0.5 µM.
As for `OC(CCN1CCCCC1)c1ccc(CCc2ccc(C(O)CCN3CCCCC3)cc2)cc1` (centres unmarked) [Compound 36, 1,1′-(Ethane-1,2-diylbis(4,1-phenylene))bis(3-(piperidin-1-yl)propan-1-ol)], the results for the IC50 at AChE (from rat brain) (setting [3]) and at BuChE (from human serum) (setting [2]) were 74.9 ± 35.6 µM and 25.9 ± 6.81 µM, respectively.
Regarding `O=C(CCCN1CCCCC1)c1ccc(-c2ccc(C(=O)CCCN3CCCCC3)cc2)cc1` [Compound 23, 1,1′-([1,1′-Biphenyl]-4,4′-diyl)bis(4-(piperidin-1-yl)butan-1-one)], the results for the IC50 on AChE (from rat brain) and against BuChE (from human serum) were 1.32 ± 0.43 µM and 5.9 ± 0.4 µM, respectively.
The corresponding values for `O=C(CCCCN1CCCCC1)c1ccc(-c2ccc(C(=O)CCCCN3CCCCC3)cc2)cc1` [Compound 24, 1,1′-([1,1′-Biphenyl]-4,4′-diyl)bis(5-(piperidin-1-yl)pentan-1-one)] are 0.82 ± 0.16 µM and 2.65 ± 0.11 µM.
